Reference: US8987243B2, “11-(2-pyrrolidin-1-yl-ethoxy)-14,19-dioxa-5,7,26-triaza-tetracyclo[19.3.1.1(2,6).1(8,12)]heptacosa-maleate salt” (CTI Biopharma Corp., priority 2008, dated 2015)
Counter-ions that a name gives are not always drawn.

Assays:
Format in all cases: physicochemical
[1] = Thermal gravimetric analysis (TGA); settings: for water lost in the first phase of the TGA: hydrochloride
Description: The samples of both hydrochloride (comparative) and maleate salts were subjected to thermal gravimetric analysis and differential scanning calorimetry under the following conditions. DSC data were collected on a TA Instruments Q2000 equipped with a 50 position auto-sampler. The instrument was calibrated for energy and temperature calibration using certified indium. Typically 0.5-3 mg of each sample, in a pin-holed aluminium pan, was heated at 10° C.·min^−1 from 25° C. to 270° C.
TGA data were collected on a TA Instruments Q500 TGA, equipped with a 16 position auto-sampler. The instrument was temperature calibrated using certified Alumel. Typically 5-30 mg of each sample was loaded onto a pre-tared platinum crucible and aluminium DSC pan, and was heated at 10° C.·min^−1 from ambient temperature to 300° C. A nitrogen purge at 60 ml·min^−1 was maintained over the sample. The instrument control software was Thermal Advantage v4.6.6 and the data were analysed using Universal Analysis v4.3A. Alternatively, TGA data were collected on a Mettler TGA/SDTA 851e equipped with a 34 position auto-sampler. The instrument was temperature calibrated using certified indium. Typically 5-30 mg of each sample was loaded onto a pre-weighed aluminium crucible and was heated at 10° C.·min^−1 from ambient temperature to 300° C. A nitrogen purge at 50 ml·min^−1 was maintained over the sample. The instrument control and data analysis software was STARe v9.01.

[2] = Gravimetric Vapour Sorption (GVS), with XRPD post GVS; settings: for solid form / crystalline pattern by XRPD post GVS: compared with starting material
[3] = Variable temperature X-ray diffraction; settings: variable temperature XRPD
Description: Samples run under non-ambient conditions were mounted on a silicon wafer with heat-conducting compound. The sample was then heated to the appropriate temperature at ca. 10° C.·min^−1 and subsequently held isothermally for ca 2 minutes before data collection was initiated. In order to probe the stability of the samples of the maleate salts variable temperature X-ray diffraction was carried out. Thus, the salts were scanned under X-ray diffraction conditions at a series of temperatures and the characteristic peaks determined.

[4] = Maturation studies in 27 solvents, solids analysed by XRPD; settings: 4 h heat/cool cycles 50° C./r.t., 24 h
Description: In order to determine the propensity of polymorphism for the maleate salt the material was maturated in 27 different solvents. A small amount of solid was slurried with the corresponding solvent (see Table 4 below) and stored in the incubator and subjected to 4 h-heat/cool cycles at 50° C./r.t. for 24 h. The solvents were then removed under vacuum, and the remaining solids analysed by XRPD.

[5] = Stress tests: storage at elevated temperature and humidity, analysed by XRPD
Description: The group three material was stressed under conditions which might cause it to convert to group one material or, indeed, another hydrated or polymorphic form. Thus samples were stored at 40° C./75% RH and also at 60° C./96% RH and analysed at regular intervals by XRPD.
The stability of the maleate salt form A material was tested in harsher conditions, when the samples were kept for a week in the humidity chamber at 60° C. and 96% RH.
The samples of both hydrochloride (comparative) and maleate salts were subjected to X-ray diffraction to determine the characteristic X-ray diffraction pattern. The conditions used were as follows: X-Ray Powder Diffraction patterns were collected on a Siemens D5000 diffractometer using Cu Kα radiation (40 kV, 40 mA), θ-θ goniometer, divergence of V20 and receiving slits, a graphite secondary monochromator and a scintillation counter. The instrument is performance checked using a certified Corundum standard (NIST 1976).

C1=CCOCc2cc(ccc2OCCN2CCCC2)Nc2nccc(n2)-c2cccc(c2)COC1.Cl [Batch HCl 1, 11-(2-pyrrolidin-1-yl-ethoxy)-14,19-dioxa-5,7,26-triaza-tetracyclo[19.3.1.1(2,6).1(8,12)]heptacosa-1(25),2(26),3,5,8,10,12(27),16,21,23-decaene hydrochloride]
two stage weight loss, total ([1]; TGA, up to 100° C.): 4.5% | mass regained on going to 40% RH ([2]; GVS, after dryness): 2% | adsorption of water in the initial adsorption cycle ([2]; GVS, at 90% RH): 5.5% | total gain of mass ([2]; GVS, whole experiment): 2% | water content after the gain ([2]; GVS, corresponds to a dihydrate): 6.5% | mass lost on going from 90% RH to dryness ([2]; GVS, hydrochloride): 5%

C1=C/COCc2cc(ccc2OCCN2CCCC2)Nc2nccc(n2)-c2cccc(c2)COC/1 [maleate salt, 11-(2-pyrrolidin-1-yl-ethoxy)-14,19-dioxa-5,7,26-triaza-tetracyclo[19.3.1.1(2,6).1(8,12)]heptacosa-1(25),2(26),3,5,8,10,12(27),16,21,23-decaene]
change of X-ray diffraction pattern with temperature [3]: no change | Solid Form after maturation ([4]; 1,4-dioxane): Form A | Solid Form after maturation ([4]; 1-butanol): Form A | Solid Form after maturation ([4]; 1-pentanol): Form A | Solid Form after maturation ([4]; 1-propanol): Form A | Solid Form after maturation ([4]; 2-butanol): Form A | Solid Form after maturation ([4]; 2-methoxy ethanol): Form A | Solid Form after maturation ([4]; 3-methyl-1-butanol): Form A | solid forms identified after maturation, all cases ([4]; 27 different solvents): only one solid form | Solid Form after maturation ([4]; Acetonitrile): Form A | Solid Form after maturation ([4]; Cyclohexane): Form A | Solid Form after maturation ([4]; DMSO): Form A | Solid Form after maturation ([4]; Dicloromethane): Form A | Solid Form after maturation ([4]; Ethanol): Form A | Solid Form after maturation ([4]; Ethyl acetate): Form A | Solid Form after maturation ([4]; Heptane): Form A | Solid Form after maturation ([4]; IPA): Form A | Solid Form after maturation ([4]; Isobutyl acetate): Form A | Solid Form after maturation ([4]; Isopropyl acetate): Form A | Solid Form after maturation ([4]; Methyl isobutyl ketone): Form A | Solid Form after maturation ([4]; Methylethyl ketone): Form A | Solid Form after maturation ([4]; Nitromethane): Form A | Solid Form after maturation ([4]; Propyl acetate): Form A | Solid Form after maturation ([4]; TBME): Form A | Solid Form after maturation ([4]; Tetrahydrofuran): Form A | Solid Form after maturation ([4]; Toluene): Form A | Solid Form after maturation ([4]; Water): Form A | Solid Form after maturation ([4]; acetone): Form A | Solid Form after maturation ([4]; methanol): Form A | weight loss in the TGA ([1]; until the salt melts with decomposition at 200° C.): no weight loss | hygroscopicity ([2]; GVS): low hygroscopicity | weight taken up in water ([2]; GVS, between 0 and 90% RH): less than 0.6% | solid form / crystalline pattern by XRPD post GVS [2]: No changes | changes in the crystalline pattern after storage ([5]; a week in the humidity chamber at 60° C. and 96% RH): no changes

C1=CCOCc2cc(ccc2OCCN2CCCC2)Nc2nccc(n2)-c2cccc(c2)COC1.Cl [Batch HCl 3, 11-(2-pyrrolidin-1-yl-ethoxy)-14,19-dioxa-5,7,26-triaza-tetracyclo[19.3.1.1(2,6).1(8,12)]heptacosa-1(25),2(26),3,5,8,10,12(27),16,21,23-decaene hydrochloride]
total weight lost in the TGA ([1]; TGA): 3.4% | another loss ([1]; TGA, at 165° C.): 1.97% | water lost in the first phase of the TGA ([1]; TGA): 1.5%

C1=CCOCc2cc(ccc2OCCN2CCCC2)Nc2nccc(n2)-c2cccc(c2)COC1.Cl [Batch HCl 4, 11-(2-pyrrolidin-1-yl-ethoxy)-14,19-dioxa-5,7,26-triaza-tetracyclo[19.3.1.1(2,6).1(8,12)]heptacosa-1(25),2(26),3,5,8,10,12(27),16,21,23-decaene hydrochloride]
mass lost ([1]; TGA, between ambient and 108° C.): 6.5% | mass gained on going from 40% RH to 90% RH (water absorption) ([2]; GVS): 1.6% | mass lost on going from 90% RH to dryness ([2]; GVS, hydrochloride): 2.8% | solid form / crystalline pattern by XRPD post GVS ([2]; hydrochloride): unchanged

C1=CCOCc2cc(ccc2OCCN2CCCC2)Nc2nccc(n2)-c2cccc(c2)COC1.Cl [Batch HCl 2, 11-(2-pyrrolidin-1-yl-ethoxy)-14,19-dioxa-5,7,26-triaza-tetracyclo[19.3.1.1(2,6).1(8,12)]heptacosa-1(25),2(26),3,5,8,10,12(27),16,21,23-decaene hydrochloride]
water lost in the first phase of the TGA ([1]; TGA): 5.6%

C1=CCOCc2cc(ccc2OCCN2CCCC2)Nc2nccc(n2)-c2cccc(c2)COC1.Cl [Batch HCl 6, 11-(2-pyrrolidin-1-yl-ethoxy)-14,19-dioxa-5,7,26-triaza-tetracyclo[19.3.1.1(2,6).1(8,12)]heptacosa-1(25),2(26),3,5,8,10,12(27),16,21,23-decaene hydrochloride]
weight loss in the TGA ([1]; until degradation at around 240° C.): very little weight loss | mass gained on going from 40% RH to 90% RH (water absorption) ([2]; GVS): 1.6% | mass lost on going from 90% RH to dryness ([2]; GVS, hydrochloride): 2.4% | solid form / crystalline pattern by XRPD post GVS ([2]; hydrochloride): unchanged | solid form by XRPD after storage ([5]; 40° C./75% RH, 0 hrs): Group three. | solid form by XRPD after storage ([5]; 40° C./75% RH, 24 hrs): Group three. | solid form by XRPD after storage ([5]; 40° C./75% RH, 48 hrs): Group three. | solid form by XRPD after storage ([5]; 40° C./75% RH, 72 hrs): Group one. | solid form by XRPD after storage ([5]; 60° C./96% RH, 0 hrs): Group three. | solid form by XRPD after storage ([5]; 60° C./96% RH, 24 hrs): Group one.
